The target of data set [1] is T1, Metabotropic glutamate receptor 5 (Homo sapiens, UniProt P41594). Description: Antagonist activity at mGlu5 receptor (unknown origin) expressed in HEK cells assessed as inhibition of glutamate-induced calcium flux at 1 uM by fluorescence based assay. To be noted: HEK293. Format: functional, cell-based.
Target sequence in this assay (P41594 21-1212 limits assumed): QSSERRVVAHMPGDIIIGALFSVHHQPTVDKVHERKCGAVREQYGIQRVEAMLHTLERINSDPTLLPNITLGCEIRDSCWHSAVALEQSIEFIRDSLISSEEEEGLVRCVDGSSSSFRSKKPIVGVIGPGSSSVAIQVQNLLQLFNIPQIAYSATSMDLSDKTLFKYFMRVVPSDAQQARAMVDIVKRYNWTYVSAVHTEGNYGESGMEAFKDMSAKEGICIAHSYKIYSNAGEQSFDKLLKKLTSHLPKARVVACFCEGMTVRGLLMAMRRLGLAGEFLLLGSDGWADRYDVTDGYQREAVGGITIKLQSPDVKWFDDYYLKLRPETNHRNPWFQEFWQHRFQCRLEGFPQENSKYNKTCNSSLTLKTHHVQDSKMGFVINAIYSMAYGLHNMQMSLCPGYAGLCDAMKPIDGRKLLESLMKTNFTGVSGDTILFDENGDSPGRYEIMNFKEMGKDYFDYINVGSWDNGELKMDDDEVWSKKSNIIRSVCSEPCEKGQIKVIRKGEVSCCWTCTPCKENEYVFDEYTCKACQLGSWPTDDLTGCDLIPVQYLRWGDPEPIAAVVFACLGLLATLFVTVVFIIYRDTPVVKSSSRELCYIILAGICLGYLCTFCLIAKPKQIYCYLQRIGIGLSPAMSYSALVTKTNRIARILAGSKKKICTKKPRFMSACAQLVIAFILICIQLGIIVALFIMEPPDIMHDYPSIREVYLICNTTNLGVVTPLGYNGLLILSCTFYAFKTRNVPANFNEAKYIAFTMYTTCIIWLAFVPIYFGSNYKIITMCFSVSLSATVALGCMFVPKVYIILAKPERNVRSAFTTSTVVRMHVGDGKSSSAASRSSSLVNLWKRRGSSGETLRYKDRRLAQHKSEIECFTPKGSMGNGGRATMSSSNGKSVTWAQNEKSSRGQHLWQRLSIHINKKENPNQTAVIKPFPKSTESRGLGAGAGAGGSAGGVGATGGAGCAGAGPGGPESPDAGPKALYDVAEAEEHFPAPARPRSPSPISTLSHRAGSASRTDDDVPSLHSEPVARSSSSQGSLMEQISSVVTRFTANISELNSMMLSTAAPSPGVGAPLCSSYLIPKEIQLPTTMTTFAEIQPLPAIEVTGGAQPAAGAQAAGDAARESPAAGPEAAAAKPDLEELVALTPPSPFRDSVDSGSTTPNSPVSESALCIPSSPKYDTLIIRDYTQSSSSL
The target of data set [2] is T2, hERG (KCNH2) (Homo sapiens, UniProt Q12809). Description: Inhibition of human ERG at 10 uM by patch-clamp method.
Data set [3] has as its target T2, hERG (KCNH2). Description: Inhibition of human ERG at 1 uM by patch-clamp method.
For data set [4], the target named is CYP2C9 (Homo sapiens, UniProt P11712). Description: Inhibition of human CYP2C9 assessed as remaining activity at 10 uM. It is filed as ADME. The following applies: read-out: Activity.
Data set [5] has as its target T3, CYP1A2 (Homo sapiens, UniProt P05177).
T3 sequence (P05177 whole entry): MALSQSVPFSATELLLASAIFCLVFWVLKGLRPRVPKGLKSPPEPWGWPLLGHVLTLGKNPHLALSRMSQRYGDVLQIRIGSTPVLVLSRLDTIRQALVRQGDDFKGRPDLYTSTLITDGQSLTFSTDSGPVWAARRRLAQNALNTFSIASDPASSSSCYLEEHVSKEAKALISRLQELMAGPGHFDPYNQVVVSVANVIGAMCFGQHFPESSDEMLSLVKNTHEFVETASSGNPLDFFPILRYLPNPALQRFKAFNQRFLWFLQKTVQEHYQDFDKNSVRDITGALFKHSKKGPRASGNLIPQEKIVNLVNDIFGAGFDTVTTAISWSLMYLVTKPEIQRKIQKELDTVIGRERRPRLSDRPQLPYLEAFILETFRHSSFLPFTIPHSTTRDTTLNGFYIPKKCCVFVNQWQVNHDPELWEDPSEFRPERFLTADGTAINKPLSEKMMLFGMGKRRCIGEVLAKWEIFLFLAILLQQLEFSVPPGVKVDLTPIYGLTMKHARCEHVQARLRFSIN
In words: Inhibition of human CYP1A2 assessed as remaining activity at 10 uM. It is filed as ADME. The following applies: read-out: Activity.

The target in data set [6] is CYP2C19 (Homo sapiens, UniProt P33261). In words: Inhibition of human CYP2C19 assessed as remaining activity at 10 uM. Format: ADME. To be noted: read-out: Activity.
For data set [7], the target named is T1, Metabotropic glutamate receptor 5. Description: Antagonist activity at mGlu5 receptor (unknown origin) expressed in HEK cells assessed as inhibition of glutamate-induced calcium flux by fluorescence based assay. Format: functional, cell-based, HEK293.
The target in data set [8] is T2, hERG (KCNH2). Description: Inhibition of human ERG at 0.1 uM by patch-clamp method.
A short description of data set [9]: Metabolic stability in human liver microsomes assessed as compound remaining at 1 uM after 30 mins. It is filed as ADME. The following applies: read-out: Stability.
In data set [10] the target is CYP3A4 (Homo sapiens, UniProt P08684). In words: Inhibition of human CYP3A4 assessed as remaining activity at 10 uM. To be noted: read-out: Activity. It is filed as ADME.
For data set [11], the target named is CYP2D6 (Homo sapiens, UniProt P10635). Description: Inhibition of human CYP2D6 assessed as remaining activity at 10 uM. Format: ADME. The following applies: read-out: Activity.
Data set [12] has as its target T1, Metabotropic glutamate receptor 5. Description: Antagonist activity at mGlu5 receptor (unknown origin) expressed in HEK cells assessed as inhibition of glutamate-induced calcium flux at 10 uM by fluorescence based assay. To be noted: HEK293. It is filed as functional, cell-based.
Target sequence in this assay (P41594 21-1212 limits assumed): as the sequence (P41594 21-1212 limits assumed) above

T2 sequence (Q12809 whole entry): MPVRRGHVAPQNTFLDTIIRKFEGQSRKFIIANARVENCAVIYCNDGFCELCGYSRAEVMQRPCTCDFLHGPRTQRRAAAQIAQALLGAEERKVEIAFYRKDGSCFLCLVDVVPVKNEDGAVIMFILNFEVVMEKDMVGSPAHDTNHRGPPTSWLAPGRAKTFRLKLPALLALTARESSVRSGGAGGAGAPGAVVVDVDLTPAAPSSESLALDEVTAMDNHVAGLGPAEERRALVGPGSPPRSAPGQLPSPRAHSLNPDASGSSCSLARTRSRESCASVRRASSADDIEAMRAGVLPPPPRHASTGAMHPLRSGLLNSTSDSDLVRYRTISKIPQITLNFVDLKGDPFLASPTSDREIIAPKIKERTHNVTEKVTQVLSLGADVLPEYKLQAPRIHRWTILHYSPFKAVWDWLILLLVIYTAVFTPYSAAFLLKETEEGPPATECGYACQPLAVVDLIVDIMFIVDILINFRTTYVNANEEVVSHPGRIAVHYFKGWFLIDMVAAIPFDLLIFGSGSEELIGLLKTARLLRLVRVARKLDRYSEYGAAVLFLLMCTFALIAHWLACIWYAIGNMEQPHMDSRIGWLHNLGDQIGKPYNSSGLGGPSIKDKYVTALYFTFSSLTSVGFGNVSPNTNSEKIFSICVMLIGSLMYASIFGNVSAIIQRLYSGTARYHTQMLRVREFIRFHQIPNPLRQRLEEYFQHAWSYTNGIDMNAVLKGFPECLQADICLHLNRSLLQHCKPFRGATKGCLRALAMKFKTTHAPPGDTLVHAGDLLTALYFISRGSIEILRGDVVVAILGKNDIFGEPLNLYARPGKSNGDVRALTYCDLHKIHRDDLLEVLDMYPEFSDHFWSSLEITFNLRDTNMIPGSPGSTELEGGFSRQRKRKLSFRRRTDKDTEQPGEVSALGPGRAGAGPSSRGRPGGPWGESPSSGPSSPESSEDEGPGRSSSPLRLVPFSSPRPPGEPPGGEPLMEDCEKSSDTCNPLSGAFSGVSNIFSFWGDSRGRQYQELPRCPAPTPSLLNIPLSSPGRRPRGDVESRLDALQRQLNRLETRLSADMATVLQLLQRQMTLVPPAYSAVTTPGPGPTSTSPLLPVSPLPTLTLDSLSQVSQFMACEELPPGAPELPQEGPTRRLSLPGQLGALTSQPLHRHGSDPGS
Sequence of CYP3A4 (P08684 whole entry): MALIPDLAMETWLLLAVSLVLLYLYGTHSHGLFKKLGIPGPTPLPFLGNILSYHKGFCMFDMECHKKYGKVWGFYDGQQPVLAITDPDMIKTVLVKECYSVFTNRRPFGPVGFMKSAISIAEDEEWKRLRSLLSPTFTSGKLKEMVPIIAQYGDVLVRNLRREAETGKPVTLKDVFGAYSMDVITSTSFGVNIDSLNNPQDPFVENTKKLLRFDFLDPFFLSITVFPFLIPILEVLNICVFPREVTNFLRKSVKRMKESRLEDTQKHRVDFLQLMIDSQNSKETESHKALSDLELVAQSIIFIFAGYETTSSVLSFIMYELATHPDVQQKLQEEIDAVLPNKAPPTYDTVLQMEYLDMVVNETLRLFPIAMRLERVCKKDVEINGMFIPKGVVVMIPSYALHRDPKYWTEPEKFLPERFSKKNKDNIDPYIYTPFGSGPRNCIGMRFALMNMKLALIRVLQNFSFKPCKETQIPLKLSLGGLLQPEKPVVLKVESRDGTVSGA
Sequence of CYP2C19 (P33261 whole entry): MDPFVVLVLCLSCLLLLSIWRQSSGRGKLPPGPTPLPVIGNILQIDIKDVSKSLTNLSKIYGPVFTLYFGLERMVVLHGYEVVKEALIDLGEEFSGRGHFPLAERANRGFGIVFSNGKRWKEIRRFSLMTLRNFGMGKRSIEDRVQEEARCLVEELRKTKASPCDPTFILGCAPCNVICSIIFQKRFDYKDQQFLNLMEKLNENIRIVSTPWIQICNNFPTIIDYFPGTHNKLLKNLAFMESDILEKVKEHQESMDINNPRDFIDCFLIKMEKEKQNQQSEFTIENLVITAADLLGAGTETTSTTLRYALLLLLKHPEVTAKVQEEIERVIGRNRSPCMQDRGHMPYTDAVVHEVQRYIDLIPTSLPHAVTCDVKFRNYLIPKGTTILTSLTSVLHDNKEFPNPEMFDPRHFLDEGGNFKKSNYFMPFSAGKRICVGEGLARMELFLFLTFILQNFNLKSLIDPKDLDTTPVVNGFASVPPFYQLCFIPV
Sequence of CYP2C9 (P11712 whole entry): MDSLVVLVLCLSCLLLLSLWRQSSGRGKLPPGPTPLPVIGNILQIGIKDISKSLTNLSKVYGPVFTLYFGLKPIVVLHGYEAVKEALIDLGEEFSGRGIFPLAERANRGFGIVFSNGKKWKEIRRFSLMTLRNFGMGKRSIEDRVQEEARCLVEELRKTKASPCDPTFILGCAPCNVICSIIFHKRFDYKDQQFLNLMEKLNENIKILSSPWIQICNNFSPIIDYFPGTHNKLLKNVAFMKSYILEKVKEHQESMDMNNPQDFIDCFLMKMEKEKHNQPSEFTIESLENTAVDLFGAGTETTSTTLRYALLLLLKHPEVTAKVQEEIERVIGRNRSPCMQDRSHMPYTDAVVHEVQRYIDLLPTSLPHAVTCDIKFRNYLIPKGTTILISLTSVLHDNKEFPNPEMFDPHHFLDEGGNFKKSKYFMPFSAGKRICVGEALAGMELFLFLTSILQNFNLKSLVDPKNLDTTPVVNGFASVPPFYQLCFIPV
Sequence of CYP2D6 (P10635 whole entry): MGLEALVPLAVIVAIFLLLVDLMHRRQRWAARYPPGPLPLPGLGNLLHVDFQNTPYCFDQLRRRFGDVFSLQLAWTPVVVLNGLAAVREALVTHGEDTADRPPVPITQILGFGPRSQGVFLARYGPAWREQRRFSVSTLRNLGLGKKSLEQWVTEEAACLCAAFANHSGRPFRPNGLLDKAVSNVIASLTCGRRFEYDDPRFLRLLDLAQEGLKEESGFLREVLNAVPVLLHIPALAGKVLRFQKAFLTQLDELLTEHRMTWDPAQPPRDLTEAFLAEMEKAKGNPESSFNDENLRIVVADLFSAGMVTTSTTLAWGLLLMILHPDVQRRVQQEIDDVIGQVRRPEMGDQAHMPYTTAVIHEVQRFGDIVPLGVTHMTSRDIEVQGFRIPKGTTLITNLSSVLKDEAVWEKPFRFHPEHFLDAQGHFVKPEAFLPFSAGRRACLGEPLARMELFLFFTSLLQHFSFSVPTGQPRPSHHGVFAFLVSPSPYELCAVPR

As for `Cc1csc(C(=O)Nc2cccc(Cl)n2)n1`, the inhibition in [1] was determined as 45%.
For the compound `Cc1csc(C(=O)Nc2cccc(Cl)c2)n1`, in [1], the inhibition was 32.2%.
For the compound `O=C(Nc1cccc(F)c1)c1nc(Br)cs1`, the inhibition in [1] stood at 13.7%.
In the case of `Cc1cccc(NC(=O)c2nc(Br)cs2)n1`, the inhibition at 10 µM in data set [2] came out at 34.8%. The inhibition at 1 µM in [3] was 19.4%. The activity at 10 µM in [4] was determined as 88.2%; in data set [5] it was 11%; in data set [6] it was 7.4%; in data set [10] it was 87.3%; in data set [11], 99.2%. Further, the IC50 in data set [7] is 159 nM. Besides, the inhibition at 0.1 µM in data set [8] was 15%. Moreover, in data set [1], the inhibition turned out to be 81%. The remaining at 0.5 h, 1 µM in data set [9] stood at 7.25%.
Consider `N#Cc1cccc(NC(=O)c2nc(Br)cs2)c1`, for which, in [1], the inhibition was -0.1%.
Consider `COc1ccc(NC(=O)c2ccccn2)cn1`, for which the figures for the inhibition in data set [12] and in data set [1] were 25.5% and 14%, respectively.
Regarding `O=C(Nc1cccc(Cl)n1)c1nc(Br)cs1`, in data set [1], the inhibition was 60%.
For the compound `Cc1csc(C(=O)Nc2cccc(C#N)c2)n1`, in data set [1], the inhibition came out at 16.6%.
For the compound `O=C(Nc1cccc(F)n1)c1nc(Br)cs1`, the inhibition in data set [1] was determined as 27.6%.
With `N#Cc1cccc(NC(=O)c2cccc(F)n2)c1`, the inhibition is 34% in data set [12] and 3.2% in data set [1].
On to `Cc1cccc(C(=O)Nc2cccc(Cl)c2)n1`, for which the results for the inhibition in data set [12] and in [1] were 52.1% and 10.5%, respectively.
As to `O=C(Nc1ccc(Cl)cn1)c1ccccn1`, the results for the inhibition in data set [12] and in data set [1] were 30.7% and 16.2%, respectively.
As to `O=C(Nc1cccc(Br)n1)c1nc(Br)cs1`, in [1], the inhibition came to 19.8%.
Same read-out and setting: the result for `N#Cc1csc(C(=O)Nc2cccc(F)n2)n1` reads -0.4%.
With `COc1ccc(NC(=O)c2cccc(Cl)n2)cn1`, the inhibition was determined as 43.4% in [12] and 18.5% in data set [1].
As to `N#Cc1csc(C(=O)Nc2cccc(Cl)n2)n1`, the inhibition in [1] was -9.4%.
For the compound `Cc1ccnc(Cl)c1NC(=O)c1ccccn1`, the inhibition in data set [12] was 17.7%; in [1], 16.1%.
With `N#Cc1csc(C(=O)Nc2cccc(Br)c2)n1`, the inhibition in data set [1] was 19.5%.
Turning to `N#Cc1csc(C(=O)Nc2cccc(Cl)c2)n1`, the inhibition in data set [1] is -7.3%.
The same measure, in the same setting: the result for `Cc1csc(C(=O)Nc2cccc(Br)c2)n1` reads 18%.
On the same count and under the same terms, to `Cc1cccc(NC(=O)c2nc(C)cs2)c1` belongs 11.6%.
Same read-out and setting: the result for `N#Cc1cccc(NC(=O)c2nc(C#N)cs2)n1` reads 8.3%.
As for `O=C(Nc1cccnc1)c1cccc(Cl)n1`, the results for the inhibition in data set [12] and in data set [1] were 33.4% and 19.1%, respectively.
Regarding `O=C(Nc1ccccn1)c1ccccn1`, the inhibition came out at 65.5% in [12] and 34.5% in data set [1].
For `Cc1cccc(NC(=O)c2nc(C#N)cs2)n1`, the inhibition in [1] stood at 24.7%.
As to `Cc1csc(C(=O)Nc2ccccn2)n1`, the inhibition in [1] was found to be 47.1%.
As to `O=C(Nc1ccc(Cl)nc1Cl)c1ccccn1`, the results for the inhibition in data set [12] and in data set [1] were 35.4% and 3.85%, respectively.
For `Cc1cccc(C(=O)Nc2cccc(C#N)c2)n1`, in that order: 68.1% and 18.4%.
In the case of `N#Cc1cccc(NC(=O)c2nc(Br)cs2)n1`, the inhibition in data set [1] turned out to be 9.6%.
`Cc1ccnc(Cl)c1NC(=O)c1cccc(Cl)n1`: the inhibition is 18.6% in data set [12] and 15.7% in [1].
`O=C(Nc1cccc(Cl)c1)c1cccc(F)n1`: the figures for the inhibition in [12] and in data set [1] were 33.4% and 13.1%, respectively.
For `O=C(Nc1cccc(Cl)c1)c1nc(Br)cs1`, in data set [1], the inhibition turned out to be 58.1%.
As for `O=C(Nc1cccnc1)c1ccccn1`, the inhibition amounted to 30.3% in data set [12] and 25.6% in data set [1].
With `COc1cccc(C(=O)Nc2cccnc2)n1`, the figures for the inhibition in data set [12] and in data set [1] were 23.1% and 22.8%, respectively.
On to `O=C(Nc1cccc(Br)c1)c1nc(Br)cs1`, for which the inhibition at 10 µM in [2] is 39.6%. The inhibition at 1 µM in data set [3] was determined as 29.3%. Moreover, the activity at 10 µM in data set [4] is 99%; in [5] it was 38.3%; in [6], 86.3%; in [10] it was 84.9%; in data set [11] it was 102%. In [7], the IC50 stood at 274 nM. The inhibition at 0.1 µM in data set [8] is 16.3%. For the same compound, the inhibition in data set [1] amounted to 71.1%. Moreover, in data set [9], the remaining at 0.5 h, 1 µM amounted to 37.3%.
`Cc1cccc(NC(=O)c2nc(Br)cs2)c1`: in [1], the inhibition stood at 40.9%.
For the compound `Cc1cccc(NC(=O)c2nc(C)cs2)n1`, the inhibition in data set [1] was 50.1%.
The same measure, in the same setting: the result for `Cc1csc(C(=O)Nc2cccc(F)c2)n1` reads 3.1%.
`O=C(Nc1cc(Cl)cnc1Cl)c1ccccn1`: the figures for the inhibition in [12] and in data set [1] were 51% and 13.8%, respectively.
